Data taken from publication PMC7376718, “Flavonoids isolated from the South African weed Chromolaena odorata (Asteraceae) have pharmacological activity against uropathogens” (BMC Complementary Medicine and Therapies, 2020).
Values after ≈ are worked out from the molar mass of the structure shown. Like-named read-outs stand apart in the source and are kept apart here.

Columns and labels:
[1] = system: Cryptococcus neoformans from a cheetah; assay: MIC, serial microdilution with INT; assay type: cell-based; details: C. neoformans, read-out: Minimum inhibitory concentration
From the text: (§1) The cultures used were Escherichia coli (American Type Culture Collection, ATCC 25922) labelled as 1, E. coli isolates (B1989/17 and B1962/17) labelled as 2 and 3 from equine urine, collected from the Department of Veterinary Tropical Diseases, Faculty of Veterinary Science, University of Pretoria, South Africa, Klebsiella pneumoniae isolate from commercial chicken eggs, Enterococcus faecalis (ATCC 29212), Pseudomonas aeruginosa (ATCC 27853), Staphylococcus aureus (ATCC 29213), Candida albicans from a Gouldian finch, Aspergillus fumigatus from a chicken and Cryptococcus neoformans from a cheetah. These microbial strains were maintained on MHA or SDA for bacteria and fungi respectively, while the isolates were maintained on blood agar.
(§2) Ten mg/mL of each fraction and 1 mg/mL of isolated compounds were prepared in 10% DMSO and tested against S. aureus, E. coli, K. pneumoniae, E. faecalis, P. aeruginosa, C. albicans, C. neoformans and A. fumigatus. Cultures were prepared by inoculating each microbial strain from prepared agar plates into sterilized MHB for bacterial and SDB for fungi in sterile McCartney bottles respectively. The inoculums were placed in an orbital shaker incubator. Bacterial strains were incubated at 37 °C for 18 h. Each bacterial culture was diluted in fresh MHB and the absorbance was measured at a wavelength of 560 nm using a microplate reader (Epoch Biotek). The readings were compared to a McFarland standard No. 1 correlating to approximately 3 × 10^8 cfu/mL). For fungi strains, cultures were incubated at 30 °C for 24 h (C. albicans), 72 h (C. neoformans) and 120 h (A. fumigatus) respectively. The resultant cells and spores were washed with sterile normal saline and absorbance was measured at a wavelength of 560 nm and turbidity was adjusted to a McFarland standard 1.This was further diluted in a 1:10 ratio in SDB to a turbidity of 5 × 10^5 cfu/mL. These diluted cultures (bacterial and fungi) were used for the screening following the serial microdilution method of Eloff.

[2] = system: Candida albicans from a Gouldian finch; assay: MIC, serial microdilution with INT; assay type: cell-based; details: C. albicans, read-out: Minimum inhibitory concentration
From the text: as §1, §2

[3] = system: Aspergillus fumigatus from a chicken; assay: MIC, serial microdilution with INT; assay type: cell-based; details: for MIC: Aspergillus fumigatus, read-out: Minimum inhibitory concentration
From the text: as §1, §2

[4] = system: C. neoformans and A. fumigatus; assay: Mean MIC over the fungal isolates; assay type: cell-based
From the text: as §1, §2

[5] = in vitro
Description: (§3) Different concentrations of the compounds ranging from 0.003 to 0.2 mg/mL were tested for cytotoxicity against three cell lines; Vero monkey kidney, C3A and Caco2. Vero cells were grown and maintained in MEM, supplemented with 0.1% gentamicin and 5% foetal calf serum, while Caco2 and C3A cells were grown and maintained in DMEM supplemented with 10% foetal calf serum, 1% non-essential amino acids and 1% penicillin-streptomycin. All cells were incubated in a 5% CO2 incubator at 37 °C. Doxorubicin chloride was used as positive control while 10% DMSO used in dissolving the test samples was used as the negative control. The 3-(4,5-dimethylthiazol)-2,5-diphenyl tetrazolium bromide (MTT) assay described by Mosmann with modification by McGaw et al. was used to determine the cytotoxicity of the test samples. The lethal concentration (LC50) value was calculated as the concentration of tested sample resulting in a 50% reduction of absorbance compared to untreated cells. Selectivity index (SI) values were calculated against the MIC using the formula: […]

[6] = in vitro; remark: listed apart in the source
Description: as §3

[7] = system: S. aureus, E. coli (1), E. coli (2), E. coli (3), K. pneumoniae; assay: Mean MIC over the bacterial strains; assay type: cell-based; details: mean over the five bacterial strains of Table 3
From the text: as §1, §2

[8] = system: Escherichia coli (ATCC 25922), E. coli (1); assay: MIC, serial microdilution with INT; assay type: cell-based; details: for MIC: Escherichia coli, ATCC25922, E. coli (1), read-out: Minimum inhibitory concentration
From the text: as §1, §2

[9] = system: Klebsiella pneumoniae isolate from commercial chicken eggs; assay: MIC, serial microdilution with INT; assay type: cell-based; details: K. pneumoniae; for MIC: Klebsiella pneumoniae, read-out: Minimum inhibitory concentration
From the text: as §1, §2

[10] = system: Pseudomonas aeruginosa (ATCC 27853); assay: MIC, serial microdilution with INT; assay type: cell-based; details: ATCC27853, P. aeruginosa, read-out: Minimum inhibitory concentration
From the text: as §1, §2

[11] = system: E. coli (B1989/17) isolate from equine urine, E. coli (2); assay: MIC, serial microdilution with INT; assay type: cell-based; details: Escherichia coli, read-out: Minimum inhibitory concentration
From the text: as §1, §2

[12] = system: Staphylococcus aureus (ATCC 29213); assay: MIC, serial microdilution with INT; assay type: cell-based; details: ATCC29213, S. aureus, read-out: Minimum inhibitory concentration
From the text: as §1, §2

[13] = system: E. coli (B1962/17) isolate from equine urine, E. coli (3); assay: MIC, serial microdilution with INT; assay type: cell-based; details: Escherichia coli, read-out: Minimum inhibitory concentration
From the text: as §1, §2

[14] = system: Enterococcus faecalis (ATCC 29212); assay: MIC, serial microdilution with INT; assay type: cell-based; details: ATCC29212, E. faecalis, read-out: Minimum inhibitory concentration
From the text: as §1, §2

[15] = Cytotoxicity, MTT assay; assay type: cell-based; details: human, C3A cells, read-out: Lethal concentration (LC50)
Description: Different concentrations of the compounds ranging from 0.003 to 0.2 mg/mL were tested for cytotoxicity against three cell lines; Vero monkey kidney, C3A and Caco2. Vero cells were grown and maintained in MEM, supplemented with 0.1% gentamicin and 5% foetal calf serum, while Caco2 and C3A cells were grown and maintained in DMEM supplemented with 10% foetal calf serum, 1% non-essential amino acids and 1% penicillin-streptomycin. All cells were incubated in a 5% CO2 incubator at 37 °C. Doxorubicin chloride was used as positive control while 10% DMSO used in dissolving the test samples was used as the negative control. The 3-(4,5-dimethylthiazol)-2,5-diphenyl tetrazolium bromide (MTT) assay described by Mosmann [50] with modification by McGaw et al. [51] was used to determine the cytotoxicity of the test samples. The lethal concentration (LC50) value was calculated as the concentration of tested sample resulting in a 50% reduction of absorbance compared to untreated cells.

[16] = system: S. aureus; parameters: method as in earlier work; details: ref [70] Teffo et al.; cited from earlier work
[17] = system: Caco2 cells; assay: in vitro; details: Caco2
Description: as §3

[18] = system: selected microbial strains; assay: MIC summarised over the selected microbial strains; assay type: cell-based; details: summary over bacterial and fungal strains
From the text: as §1, with “These microbial strains were maintained on MHA or SDA for bacteria and fungi respectively, while the isolates were maintained on blood agar.” left out
Ten mg/mL of each fraction and 1 mg/mL of isolated compounds were prepared in 10% DMSO and tested against S. aureus, E. coli, K. pneumoniae, E. faecalis, P. aeruginosa, C. albicans, C. neoformans and A. fumigatus. […] Each bacterial culture was diluted in fresh MHB and the absorbance was measured at a wavelength of 560 nm using a microplate reader (Epoch Biotek). The readings were compared to a McFarland standard No. 1 correlating to approximately 3 × 10^8 cfu/mL). […] The resultant cells and spores were washed with sterile normal saline and absorbance was measured at a wavelength of 560 nm and turbidity was adjusted to a McFarland standard 1.This was further diluted in a 1:10 ratio in SDB to a turbidity of 5 × 10^5 cfu/mL. […]

[19] = system: E. coli; parameters: method as in earlier work; details: ref [70] Teffo et al.; cited from earlier work

Compound	MIC ([1]; 72 h, 72 h)	MIC ([3]; 48 h)	MIC ([3]; 72 h)	MIC ([3]; 120 h)	CC50 [5]	CC50 [6]	MIC [7]	MIC [8]	Minimum inhibitory concentration [9]	MIC [9]	MIC [11]	MIC [12]	MIC [13]	MIC ([1]; 48 h, 48 h)	MIC, range or verdict over the strains tested [18]	other results
C[C@@H]1[C@H](O)[C@@H](C)/C=C/C=C/C=C/C=C/C=C/C=C/C=C/[C@H](O[C@@H]2O[C@H](C)[C@@H](O)[C@H](N)[C@@H]2O)C[C@@H]2O[C@](O)(C[C@@H](O)C[C@@H](O)[C@H](O)CC[C@@H](O)C[C@@H](O)CC(=O)O[C@H]1C)C[C@H](O)[C@H]2C(=O)O [Amphotericin B, amphotericin B, reference compound]	125 µg/mL (≈ 135 µM)	31 µg/mL (≈ 33.5 µM)	63 µg/mL (≈ 68.2 µM)	125 µg/mL (≈ 135 µM)	–	–	–	–	–	–	–	–	–	–	–	MIC ([1]; 120 h, 120 h): 125 µg/mL (≈ 135 µM); MIC ([2]; 24 h): 31 µg/mL (≈ 33.5 µM); MIC ([2]; 48 h): 63 µg/mL (≈ 68.2 µM); MIC ([4]; all time points of Table 3): 70 ± 60 µg/mL (≈ 75.8 µM); Mean MIC ([4]; all time points of Table 3, listed as Amp B): 70 µg/mL
CNC(C)C1CCC(N)C(OC2C(N)CC(N)C(OC3OCC(C)(O)C(NC)C3O)C2O)O1 (stereo not shown) [Gentamicin, gentamicin, reference compound]	–	–	–	> 2500 µg/mL	> 200 µg/mL	> 200 µg/mL	60 ± 110 µg/mL (≈ 126 µM)	20 µg/mL (≈ 41.9 µM)	250 µg/mL (≈ 523 µM)	500 µg/mL (≈ 1050 µM)	31 µg/mL (≈ 64.9 µM)	8 µg/mL (≈ 16.8 µM)	8 µg/mL (≈ 16.8 µM)	–	–	Mean MIC [7]: 60 µg/mL; Minimum inhibitory concentration ([8]; E. coli (1)): 16 µg/mL (≈ 33.5 µM); MIC [10]: 8 µg/mL (≈ 16.8 µM); MIC [14]: 500 µg/mL (≈ 1050 µM)
COc1cccc2c1C(=O)c1c(O)c3c(c(O)c1C2=O)C[C@@](O)(C(=O)CO)C[C@@H]3O[C@H]1C[C@H](N)[C@H](O)[C@H](C)O1 [Doxorubicin, Doxorubicin chloride, reference compound]	–	–	–	–	–	–	–	–	–	–	–	–	–	–	–	CC50 [15]: 3.3 µg/mL
O=C(O)c1cn(C2CC2)c2cc(N3CCNCC3)c(F)cc2c1=O [Ciprofloxacin, ciprofloxacin, reference compound]	–	–	–	–	–	–	20 µg/mL (≈ 60.4 µM)	2 µg/mL (≈ 6.04 µM)	50 µg/mL (≈ 151 µM)	50 µg/mL (≈ 151 µM)	0.05 µg/mL (≈ 0.151 µM)	63 µg/mL (≈ 190 µM)	1 µg/mL (≈ 3.02 µM)	–	–	–
COc1ccc(-c2oc3cc(O)cc(O)c3c(=O)c2O)cc1 [Compound 4, 3,5,7-trihydroxy-4′-methoxyflavone]	> 250 µg/mL	250 µg/mL (≈ 833 µM)	> 250 µg/mL	> 2500 µg/mL	> 200 µg/mL	193 µg/mL (≈ 643 µM)	–	125 µg/mL (≈ 416 µM)	–	> 250 µg/mL	> 250 µg/mL	250 µg/mL (≈ 833 µM)	> 250 µg/mL	> 250 µg/mL	weak antimicrobial activity	MIC / antibacterial activity [16]: 250 µg/mL (≈ 833 µM); Selectivity index (LC50/MIC) ([17]; E. coli (1)): 1.544; Selectivity index (LC50/MIC) ([17]; S. aureus): 0.772; MIC / antibacterial activity [19]: 125 µg/mL (≈ 416 µM)
COc1ccc(-c2cc(=O)c3c(O)c(OC)c(O)cc3o2)cc1 [Compound 1, 5,7-dihydroxy-4′,6-dimethoxy-flavone]	> 250 µg/mL	63 µg/mL (≈ 200 µM)	250 µg/mL (≈ 795 µM)	> 2500 µg/mL	–	–	250 µg/mL (≈ 795 µM)	250 µg/mL (≈ 795 µM)	–	250 µg/mL (≈ 795 µM)	> 250 µg/mL	250 µg/mL (≈ 795 µM)	> 250 µg/mL	> 250 µg/mL	weak antimicrobial activity	Minimum inhibitory concentration ([3]; 48 h): good activity
